Assays:
RAW macrophages = assay: Cell-based NO2- scavenging activity (Griess assay, RAW macrophages); conditions: for Actual % inhibition of ROS / % inhibition of ROS in comparison to Oil Palm phenolics (± S.E): Table 2; for Actual % inhibition of ROS: each component added at the concentration present in 800 μg/mL OPP; for % inhibition of ROS in comparison to Oil Palm phenolics (± S.E): relative to OPP 800 μg/mL = 100; for Enhancement of anti-inflammatory and anti-oxidative activity of other components / Inhibitory action / nitrite scavenging activity (in words): cell-based Griess assay
Description: FIG. 1 is a graphical representation of the biological enhancement of chemical combination of major compounds of Oil Palm phenolics in cell-based NO2^− scavenging activity (Griess assay, RAW macrophages, Mean±SE).
FIG. 1 and Table 2 show the synergistic effect of the composition in cell based nitrite scavenging activity.
For the study, PH435 composition was prepared according to the concentration present in 800 μg/mL of Oil Palm Phenolics.

[1] = Nitrite measurement (sodium nitroprusside, SNP assay), chemical system; conditions: for Inhibition of the nitrite ion (in words): chemical system
From the text: Nitrite Measurement (Sodium Nitroprusside—SNP Assay)
SNP in aqueous solution at physiological pH spontaneously generates nitric oxide, which interacts with oxygen to produce a nitrite ion that can be estimated by using griess reagent.

[2] = Chemical-based ORAC assay
Red blood cells = assay: Cell-based antioxidant protection in erythrocytes (CAP-e assay), ROS scavenging; conditions: for Effect on reducing ROS / inhibitory action (in words): RBC cells; for Actual % inhibition of ROS: each component added at the concentration present in 10 mg/mL OPP; for % inhibition of ROS in comparison to Oil Palm phenolics (±S.E.): relative to OPP 10 mg/mL = 100
From the text: H2O2 Measurement (Cell-Based Antioxidant Protection in Erythrocytes CAP-e Assay)
Red blood cells can be used as a cellular model to quantify reactive oxygen species (ROS). As these cells lose their nuclei at the erythroblast stage, they cannot perform transcription and translation for bringing about genetic and protein level changes.

[3] = system: Granulocytes/polymorphonuclear (PMN) cells; assay: H2O2 measurement, cell-based antioxidant protection in granulocytes/polymorphonuclear (PMN) cells assay
From the text: H2O2 Measurement (Cell-Based Antioxidant Protection in Granulocytesipolymorphonuclear—PMN Cells Assay)

Compound	Actual % inhibition of ROS (RAW macrophages) [%]	% inhibition of ROS in comparison to Oil Palm phenolics (± S.E) (RAW macrophages)	Actual % inhibition of ROS (Red blood cells)	% inhibition of ROS in comparison to Oil Palm phenolics (±S.E.) (Red blood cells)	other results
O=C(/C=C/c1ccc(O)c(O)c1)O[C@@H]1C=C(C(=O)O)C[C@@H](O)[C@@H]1O [3-Caffeoylshikimic acid, 3-caffeoylshikimic acid]	12.3	18.6(±2.3) %			
O=C(O)C1=CC(=O)[C@@H](O)[C@H](O)C1 [3-dehydroshikimic acid]			9.9%	13.4 (±0.05) %	Inhibition of the nitrite ion (in words) [1]: low inhibition; Inhibition of the nitrite ion (in words) ([1]; listed as 3-dehydroshikirnic acid): shows inhibitory action; Enhancement effect [2]: enhancement effect could be seen; Effect on reducing ROS / inhibitory action (in words) (Red blood cells): shows inhibitory action; Synergy / enhancement effect of the combination on ROS inhibition (Red blood cells; chemical combination versus mathematical sum): enhancement effect could be seen; Enhancement of anti-inflammatory and anti-oxidative activity of other components (RAW macrophages): enhancement effect could be seen; Inhibitory action / nitrite scavenging activity (in words) (RAW macrophages): shows inhibitory action
O=C(/C=C/c1ccc(O)c(O)c1)O[C@@H]1[C@H](O)C=C(C(=O)O)C[C@H]1O [4-Caffeoylshikimic acid, 4-caffeoylshikimic acid]	8.4	12.7(±2.5) %			
O=C(/C=C/c1ccc(O)c(O)c1)O[C@@H]1CC(C(=O)O)=C[C@@H](O)[C@H]1O [5-Caffeoylshikimic acid, 5-caffeoylshikimic acid]	8.8	13.4(±3.7) %			
O=C(O)c1ccc(O)c(O)c1 [Protocatechuic acid]	8.6	13 (±0.7) %			
O=C(O)C1=C[C@@H](O)[C@@H](O)[C@H](O)C1 [Shikimic acid]	3.4	5.2 (±0.7) %	-Not detected-	-Not detected-	Enhancement of anti-inflammatory and anti-oxidative activity of other components [3]: able to enhance; Inhibitory action (in words) [3]: shows inhibitory action; Enhancement of nitrite inhibition when added with other components ([1]; added along with p-hydroxybenzoic acid): does not show any enhancement; Inhibition of the nitrite ion (in words) [1]: shows inhibitory action; Inhibition of the nitrite ion (in words) ([1]; listed as shikimic acid): low inhibition; Effect on reducing ROS / inhibitory action (in words) (Red blood cells): shows no activity; Effect on reducing ROS / inhibitory action (in words) (Red blood cells; listed as shikimic acid): does not show any effect; Enhancement of anti-inflammatory and anti-oxidative activity of other components (RAW macrophages): able to enhance; Inhibitory action / nitrite scavenging activity (in words) (RAW macrophages): shows inhibitory action
O=C(O)c1ccc(O)cc1 [p-hydoxybenzoic acid]	11.4	17.3(±2.8) %	22.5%	30.6 (±0.2) %	
caffeoylshikimic acid			25.9%	35.2(±0.1) %	
